The results in this text go back to patent publication US9458092B2, “α-Substituted glycinamide derivative” (KISSEI PHARMACEUTICAL CO., LTD., priority 2013, dated 2016).

TRPM8, sequence (Q8R455 whole entry): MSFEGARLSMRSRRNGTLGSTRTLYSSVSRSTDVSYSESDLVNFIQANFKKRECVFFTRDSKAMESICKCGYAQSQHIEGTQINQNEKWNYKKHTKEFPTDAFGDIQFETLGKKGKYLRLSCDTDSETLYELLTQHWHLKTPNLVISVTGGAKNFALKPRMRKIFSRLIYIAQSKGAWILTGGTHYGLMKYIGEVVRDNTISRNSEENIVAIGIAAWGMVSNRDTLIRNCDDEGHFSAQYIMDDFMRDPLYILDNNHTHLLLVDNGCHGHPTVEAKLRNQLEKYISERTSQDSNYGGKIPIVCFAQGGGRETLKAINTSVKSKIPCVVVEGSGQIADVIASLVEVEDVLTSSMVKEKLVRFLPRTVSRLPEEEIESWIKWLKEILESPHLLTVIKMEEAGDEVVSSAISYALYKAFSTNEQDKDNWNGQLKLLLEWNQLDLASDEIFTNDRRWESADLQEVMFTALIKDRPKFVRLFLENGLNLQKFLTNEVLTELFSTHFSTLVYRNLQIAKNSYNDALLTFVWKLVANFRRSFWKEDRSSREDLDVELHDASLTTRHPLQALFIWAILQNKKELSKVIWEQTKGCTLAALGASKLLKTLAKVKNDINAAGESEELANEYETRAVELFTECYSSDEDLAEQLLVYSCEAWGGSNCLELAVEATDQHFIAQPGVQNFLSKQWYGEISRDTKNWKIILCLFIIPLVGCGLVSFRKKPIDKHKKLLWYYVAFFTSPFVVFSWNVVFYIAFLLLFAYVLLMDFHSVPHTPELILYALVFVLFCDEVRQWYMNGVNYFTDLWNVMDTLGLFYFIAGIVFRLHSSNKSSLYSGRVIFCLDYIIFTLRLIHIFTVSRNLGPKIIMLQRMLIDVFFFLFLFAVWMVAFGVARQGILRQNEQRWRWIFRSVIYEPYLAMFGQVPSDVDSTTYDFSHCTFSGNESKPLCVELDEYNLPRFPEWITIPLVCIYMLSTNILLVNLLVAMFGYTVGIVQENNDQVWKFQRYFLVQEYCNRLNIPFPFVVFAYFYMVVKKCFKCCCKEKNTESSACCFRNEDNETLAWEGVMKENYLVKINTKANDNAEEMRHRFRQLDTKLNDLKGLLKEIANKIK

The first test concerns the target TRPM8 (Rattus norvegicus, UniProt Q8R455). Put plainly: Confirmation test of inhibitory effects on icilin-induced wet-dog shakes. In kind it is in vivo, female SD rats. Details: test compounds were orally administered to female SD rats; from tissue; host or cells: whole animal (female SD rats), endogenous channel. The settings on record: dose 3 mg/kg orally, icilin 1 mg/kg i.p. after 1 hour, shakes counted for 5 minutes. As to the method:
Test compounds were dissolved in dimethylacetamide (wako), and 0.5% methylcellulose solution (wako) was added to make the solution or suspension containing 5% of dimethylacetamide. At a dose of 3 or 10 mg/kg/5 mL of test compounds were orally administered to female SD rats. After 1 hour, wet-dog shakes were induced by the intrapenitoneal injection of icilin (1 mg/kg) which was dissolved in polyethylene glycol 400 (wako). From 5 minutes after the administration of icilin, wet-dog shakes were counted for 5 minutes. For control example, vehicle (a mixture of dimethylacetamide (wako): 0.5% methylcellulose (wako)=5:95) was administrated similarly, and the number of wet-dog shakes was counted in the same manner. A percent inhibition of wet-dog shakes by test compound was calculated from the following formula: [1-(test compound wet-dog shake count/vehicle wet-dog shake count)]×100.
With `NC(=O)[C@@H](c1cccnc1)N(C(=O)c1ccccc1)[C@@H]1CCc2ccc(Cl)cc21` [Example 2-87LP, N-[(R)-carbamoylpyridin-3-ylmethyl]-N-[(R)-6-chloroindan-1-yl]benzamide], the “% inhibition of Wet-Dog Shake” value turned out to be 36%.

With `Cc1ncccc1C(=O)N([C@@H]1CCc2c(F)cc(Cl)cc21)[C@@H](C(N)=O)c1cccc(F)c1` [Example 2-161LP, N-[(R)-carbamoyl-(3-fluorophenyl)methyl]-N-[(R)-6-chloro-4-fluoroindan-1-yl]-2-methylnicotinamide], the “% inhibition of Wet-Dog Shake” value is on record as 42%.

As to `NC(=O)[C@@H](c1ccccc1)N(C(=O)c1ccccc1)[C@@H]1COc2c(F)cc(Cl)cc21` (racemic) [Example 2-252M, N-[(RS)-carbamoylphenylmethyl]-N-[(SR)-5-chloro-7-fluoro-2,3-dihydrobenzofuran-3-yl]benzamide], the “% inhibition of Wet-Dog Shake” value was 31%.

As to `COc1ccccc1C(=O)N([C@@H]1CCc2c(F)cc(Cl)cc21)[C@@H](C(N)=O)c1cccnc1` [Example 2-118LP, N-[(R)-carbamoylpyridin-3-ylmethyl]-N-[(R)-6-chloro-4-fluoroindan-1-yl]-2-methoxybenzamide], the “% inhibition of Wet-Dog Shake” value worked out at 62%.

Turning to `Cc1cccnc1C(=O)N([C@@H]1CCc2c(F)cc(Cl)cc21)[C@@H](C(N)=O)c1ccccc1` [Example 2-152LP, N-[(R)-carbamoylphenylmethyl]-N-[(R)-6-chloro-4-fluoroindan-1-yl]-3-methylpyridine-2-carboxamide], the “% inhibition of Wet-Dog Shake” value amounted to 44%.

Regarding `Cc1ncncc1C(=O)N([C@@H]1CCc2c(F)cc(Cl)cc21)[C@@H](C(N)=O)c1ccccc1` [Example 2-154LP, N-[(R)-carbamoylphenylmethyl]-N-[(R)-6-chloro-4-fluoroindan-1-yl]-4-methylpyrimidine-5-carboxamide], the “% inhibition of Wet-Dog Shake” value was determined as 36%.

For the compound `Cc1nccnc1C(=O)N([C@@H]1CCc2c(F)cc(Cl)cc21)[C@@H](C(N)=O)c1ccccc1` [Example 2-175LP, N-[(R)-carbamoylphenylmethyl]-N-[(R)-6-chloro-4-fluoroindan-1-yl]-3-methylpyrazine-2-carboxamide], the “% inhibition of Wet-Dog Shake” value is reported as 40%.

As to `NC(=O)[C@@H](c1ccccc1)N(C(=O)c1cccc2c1OCO2)[C@@H]1CCc2c(F)cc(Cl)cc21` [Example 2-173LP, N-[(R)-carbamoylphenylmethyl]-N-[(R)-6-chloro-4-fluoroindan-1-yl]benzo[1,3]dioxole-4-carboxamide], the “% inhibition of Wet-Dog Shake” value is on record as 99%.

On to `NC(=O)[C@@H](c1cncc(F)c1)N(C(=O)c1ccccc1O)[C@@H]1CCc2c(F)cc(Cl)cc21` [Example 19-31LP, N-[(R)-Carbamoyl(5-fluoropyridin-3-yl)methyl]-N-[(R)-6-chloro-4-fluoroindan-1-yl]-2-hydroxybenzamide], for which the “% inhibition of Wet-Dog Shake” value turned out to be 71%.

Consider `CNc1ncccc1C(=O)N([C@@H]1CCc2c(F)cc(Cl)cc21)[C@@H](C(N)=O)c1ccccc1` [Example 2-107LP, N-[(R)-carbamoylphenylmethyl]-N-[(R)-6-chloro-4-fluoroindan-1-yl]-2-(methylamino)nicotinamide], for which the “% inhibition of Wet-Dog Shake” value was found to be 68%.

Consider `Cc1ncsc1C(=O)N([C@@H]1CCc2ccc(Cl)cc21)[C@@H](C(N)=O)c1ccccc1` [Example 2-88LP, N-[(R)-carbamoylphenylmethyl]-N-[(R)-6-chloroindan-1-yl]-4-methylthiazole-5-carboxamide], for which the “% inhibition of Wet-Dog Shake” value is given as 46%.

For `COc1ncccc1C(=O)N([C@@H]1CCc2c(F)cc(F)cc21)[C@@H](C(N)=O)c1ccccc1` [Example 2-36LP, N-[(R)-carbamoylphenylmethyl]-N-[(R)-4,6-difluoroindan-1-yl]-2-methoxynicotinamide], the “% inhibition of Wet-Dog Shake” value was found to be 74%.

`Cc1cccc(C(=O)N([C@@H]2CCc3c(F)cc(Cl)cc32)[C@@H](C(N)=O)c2ccccc2)c1O` [Example 4-9, N-[(R)-carbamoylphenylmethyl]-N-[(R)-6-chloro-4-fluoroindan-1-yl]-2-hydroxy-3-methylbenzamide]: the “% inhibition of Wet-Dog Shake” value came to 36%.

With `Cc1ncccc1C(=O)N([C@@H]1CCc2c(F)cc(Cl)cc21)[C@@H](C(N)=O)c1cccc(O)c1` [Example 2-168LP, N-[(R)-carbamoyl-(3-hydroxyphenyl)methyl]-N-[(R)-6-chloro-4-fluoroindan-1-yl]-2-methylnicotinamide], the “% inhibition of Wet-Dog Shake” value amounted to 36%.

On to `NC(=O)[C@@H](c1cnccn1)N(C(=O)c1ccccc1O)[C@@H]1CCc2c(F)cc(Cl)cc21` [Example 4-8, N-[(R)-carbamoylpyrazin-2-ylmethyl]-N-[(R)-6-chloro-4-fluoroindan-1-yl]-2-hydroxybenzamide], for which the “% inhibition of Wet-Dog Shake” value worked out at 37%.

Turning to `COc1ncccc1C(=O)N([C@@H]1CCc2c(F)cc(Cl)cc21)[C@@H](C(N)=O)c1cccnc1` [Example 2-180LP, N-[(R)-carbamoylpyridin-3-ylmethyl]-N-[(R)-6-chloro-4-fluoroindan-1-yl]-2-methoxynicotinamide], the “% inhibition of Wet-Dog Shake” value was determined as 32%.

`Cc1ncccc1C(=O)N([C@@H]1CCc2ccc(Cl)cc21)[C@@H](C(N)=O)c1ccccc1` [Example 2-137LP, N-[(R)-carbamoylphenylmethyl]-N-[(R)-6-chloroindan-1-yl]-2-methylnicotinamide]: the “% inhibition of Wet-Dog Shake” value is 53%.

The test is the same for the next values; noted with them: dose 10 mg/kg orally, icilin 1 mg/kg i.p. after 1 hour, shakes counted for 5 minutes.
Consider `NC(=O)[C@@H](c1ccccc1)N(C(=O)c1ccccc1)[C@@H]1CCc2ccc(OC(F)F)cc21` [Example 2-11LP, N-[(R)-carbamoylphenylmethyl]-N-[(R)-6-difluoromethoxyindan-1-yl]benzamide], for which the “% inhibition of Wet-Dog Shake” value worked out at 85%.

For `NC(=O)[C@@H](c1ccccc1)N(C(=O)c1cccnc1N)[C@@H]1CCc2ccc(OC(F)F)cc21` [Example 2-27LP, 2-amino-N-[(R)-carbamoylphenylmethyl]-N-[(R)-6-difluoromethoxyindan-1-yl]nicotinamide], the “% inhibition of Wet-Dog Shake” value came to 95%.

In the case of `NC(=O)[C@@H](c1ccccc1)N(C(=O)c1cccnc1)[C@@H]1CCc2c(F)cccc21` [Example 2-56LP, N-[(R)-carbamoylphenylmethyl]-N-[(R)-4-fluoroindan-1-yl]nicotinamide], the “% inhibition of Wet-Dog Shake” value amounted to 50%.

With `NC(=O)[C@@H](c1cccnc1)N(C(=O)c1ccc(F)cc1O)[C@@H]1CCc2c(F)cc(Cl)cc21` [Example 19-16LP, N-[(R)-carbamoylpyridin-3-ylmethyl]-N-[(R)-6-chloro-4-fluoroindan-1-yl]-4-fluoro-2-hydroxybenzamide], the “% inhibition of Wet-Dog Shake” value is recorded as 63%.

On to `NC(=O)[C@@H](c1cccnc1)N(C(=O)c1cccc(F)c1O)[C@@H]1CCc2c(F)cc(Cl)cc21` [Example 19-25LP, N-[(R)-carbamoylpyridin-3-ylmethyl]-N-[(R)-6-chloro-4-fluoroindan-1-yl]-3-fluoro-2-hydroxybenzamide], for which the “% inhibition of Wet-Dog Shake” value is reported as 86%.

As for `Cc1ncccc1C(=O)N([C@@H]1CCc2c(F)cc(Cl)cc21)[C@@H](C(N)=O)c1cccc(N)c1` [Example 21-1, N-[(R)-(3-Aminophenyl)carbamoylmethyl]-N-[(R)-6-chloro-4-fluoroindan-1-yl]-2-methylnicotinamide], the “% inhibition of Wet-Dog Shake” value worked out at 99%.

`NC(=O)[C@@H](c1cccnc1)N(C(=O)c1ccc(Cl)cc1O)[C@@H]1CCc2c(F)cc(Cl)cc21` [Example 19-17LP, N-[(R)-carbamoylpyridin-3-ylmethyl]-4-chloro-N-[(R)-6-chloro-4-fluoroindan-1-yl]-2-hydroxybenzamide]: the “% inhibition of Wet-Dog Shake” value stood at 66%.

As to `Cc1ncccc1C(=O)N([C@@H]1CCc2c(F)cc(Cl)cc21)[C@@H](C(N)=O)c1cccc(N(C)C)c1` [Example 18-13LP, N-[(R)-carbamoyl-(3-dimethylaminophenyl)methyl]-N-[(R)-6-chloro-4-fluoroindan-1-yl]-2-methylnicotinamide], the “% inhibition of Wet-Dog Shake” value is 86%.

Take `Cc1cc(F)c2c(c1)[C@H](N(C(=O)c1cccnc1)[C@@H](C(N)=O)c1ccccc1)CC2` [Example 2-40LP, N-[(R)-carbamoylphenylmethyl]-N-[(R)-4-fluoro-6-methylindan-1-yl]nicotinamide]: the “% inhibition of Wet-Dog Shake” value came to 95%.

Turning to `NC(=O)[C@@H](c1cccnc1)N(C(=O)c1c(O)cccc1F)[C@@H]1CCc2c(F)cc(Cl)cc21` [Example 19-15LP, N-[(R)-carbamoylpyridin-3-ylmethyl]-N-[(R)-6-chloro-4-fluoroindan-1-yl]-2-fluoro-6-hydroxybenzamide], the “% inhibition of Wet-Dog Shake” value is 72%.

For `Cc1cccc(C(=O)N([C@@H]2CCc3c(F)cc(Cl)cc32)[C@@H](C(N)=O)c2cccnc2)c1O` [Example 19-41LP, N-[(R)-Carbamoylpyridin-3-ylmethyl]-N-[(R)-6-chloro-4-fluoroindan-1-yl]-2-hydroxy-3-methylbenzamide], the “% inhibition of Wet-Dog Shake” value was determined as 92%.

With `NC(=O)[C@@H](c1ccccc1)N(C(=O)c1ccccc1O)[C@@H]1COc2ccc(Cl)cc21` [Example 4-2, N-[(R)-carbamoylphenylmethyl]-N-[(S)-5-chloro-2,3-dihydrobenzofuran-3-yl]-2-hydroxybenzamide], the “% inhibition of Wet-Dog Shake” value is 86%.

In the case of `NC(=O)[C@@H](c1ccccc1)N(C(=O)c1cccnc1N)[C@@H]1CCc2ccc(Cl)cc21` [Example 2-33LP, 2-amino-N-[(R)-carbamoylphenylmethyl]-N-[(R)-6-chloroindan-1-yl]nicotinamide], the “% inhibition of Wet-Dog Shake” value was 98%.
